Experimental data taken from US12534451B2, “Small molecule modulators of PanK” (St. Jude Children's Research Hospital, priority 2019, dated 2026).

Key:
[1] = tested on: Human C3A [HepG2/C3A] cells; assay: Cellular total CoA determination in C3A cells; assay type: cell-based; settings: 24 hrs of treatment
Protocol: Human C3A [HepG2/C3A, derivative of HepG2] cells (ATCC #CRL-10741) were purchased from ATCC® and maintained in Eagle's minimum Essential medium (ATCC) supplemented with 2 mM glutamine, 10% fetal bovine serum (FCS, Altanta Biologicals), 50 U/ml penicillin and […] streptomycin. The C3A cell line was confirmed to be mycoplasma-free. Test compounds or vehicle control (DMSO) was added and after 24 hrs of treatment the cells were washed with PBS and harvested and subjected to total CoA determination.
Cultured cells were resuspended in 2 ml cold water to which 500 μl of 0.25M KOH was added, derivatized with monobromobimane (mBBr, Life technologies) and quantified by HPLC. 30 mg of frozen tissue is homogenized in 2 ml of 1 mM KOH and then derivatized with mBBr. The mBBr derivatized samples were fractionated by reverse-phase HPLC using a Gemini C18 3 μm column (150×4.60 mm) from Phenomenex. The chromatography system was a Waters e2695 separation module with a UV/Vis and fluorescence detector and controlled by Empower 3 software. Solvent A was 50 mM potassium phosphate pH 4.6, and solvent B was 100% acetonitrile. Twenty microliters of sample was injected onto the column, and the flow rate was 0.5 ml/min. The HPLC program was the following: starting solvent mixture of 90% A/10% B, 0-2 min isocratic with 10% B, 2-6 min linear gradient from 10% B to 15% B, 6-18 min concave gradient from 15% B to 40% B, 18-23 min isocratic with 40% B, 23-25 min linear gradient from 40 to 10%, and 25-30 min isocratic with 10% B. The UV/vis detector was set at 393 nm, and the fluorescence detector was set with excitation at 393 nm and emission at 470 nm. The elution position of the mBBr-CoA, was determined by comparison with mBBr-CoA prepared from commercial CoA (Avanti Polar Lipids). The areas under the mBBr-derivatized CoA was integrated and compared to known concentrations of the mBBr-CoA standard.

human PANK3 = human PANK3 (Homo sapiens (Human), UniProt Q9H999); assay: PANK activity assay (radiochemical, D-[1-14C]pantothenate); assay type: biochemical; settings: 5 nM human PANK3, 2.5 mM ATP, 45 μM pantothenate, 10 min at 37° C.; average ± data range
Chain of human PANK3 (Q9H999 whole entry): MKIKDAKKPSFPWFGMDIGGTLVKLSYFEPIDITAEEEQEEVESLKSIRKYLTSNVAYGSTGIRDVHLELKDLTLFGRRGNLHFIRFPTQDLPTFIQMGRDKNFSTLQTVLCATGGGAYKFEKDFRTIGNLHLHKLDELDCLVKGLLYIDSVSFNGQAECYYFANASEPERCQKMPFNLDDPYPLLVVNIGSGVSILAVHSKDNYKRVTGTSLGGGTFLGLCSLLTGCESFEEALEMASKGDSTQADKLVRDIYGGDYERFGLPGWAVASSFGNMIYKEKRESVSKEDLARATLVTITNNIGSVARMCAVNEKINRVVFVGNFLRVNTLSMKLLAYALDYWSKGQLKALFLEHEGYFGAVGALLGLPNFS
Protocol: The PanK activity and Surface Plasmon Resonance assays were conducted as explained in the literature.
If the IC^50 was determined to be in the nM range then the assay was repeated in the presence of 0-1 μM or 0-0.1 μM compound to more precisely determine the IC^50. All the experiments were repeated twice in duplicate and the data were an average ±data range.
The experiments mimicking the mixture of ligands present in vivo were performed under different conditions. […] The IC^50 values for the structure-activity study were calculated by fitting the inhibition data to a one-site model of the Michaelis-Menten equation. […] Thus, the data were fit to Morrison's quadratic equation (GraphPad software) that accounts for the impact of enzyme inhibitor binding on the free concentration of inhibitor.

O=C(Cc1ccc(C2CC2)cc1)N1CCN(c2ccc(C(F)(F)F)nn2)CC1 [PZ-4283, 2-(4-cyclopropylphenyl)-1-(4-(6-(trifluoromethyl)pyridazin-3-yl)piperazin-1-yl)ethanone]
C3A CoA% elevation [1]: 218.2%

CC(C)c1ccc(CC(=O)N2CCN(c3ncc4ccsc4n3)CC2)cc1 [PZ-4478]
IC50 (human PANK3): 125 ± 19.2 nM

CN(C)c1ccc(CC(=O)N2CCN(c3ccc(C#N)nn3)CC2)cn1 [PZ-4069, 6-(4-(2-(6-(dimethylamino)pyridin-3-yl)acetyl)piperazin-1-yl)pyridazine-3-carbonitrile]
IC50 (human PANK3): 440 ± 45 nM

O=C(Cc1ccc(C2CC2)cc1F)N1CCN(c2nc3ncc(F)cc3o2)CC1 [PZ-4352]
IC50 (human PANK3): 0.86 ± 0.078 nM

CS(=O)(=O)Nc1ccc(CC(=O)N2CCN(c3ccc(C(F)(F)F)nn3)CC2)cc1 [PZ-4295]
C3A CoA% elevation [1]: 140.8%

CC(=O)Nc1ccc(CC(=O)N2CCN(c3ccc(Cl)nn3)CC2)cc1 [PZ-4071, N-(4-(2-(4-(6-chloropyridazin-3-yl)piperazin-1-yl)-2-oxoethyl)phenyl)acetamide]
C3A CoA% elevation [1]: 185.3%

Cc1ccc2oc(N3CCN(C(=O)Cc4ccc(C5CC5)cc4)CC3)nc2n1 [PZ-4364]
IC50 (human PANK3): 77.3 ± 8.2 nM

O=C(Cc1ccc(C2CC2)cc1F)N1CCN(c2nc3cccnc3o2)CC1 [PZ-4344]
IC50 (human PANK3): 7.6 ± 0.48 nM

O=C(Cc1ccc(C2CC2)cc1)NCC1(CCl)CN(c2ccc(Cl)nn2)C1 [PZ-4469, N-((3-(chloromethyl)-1-(6-chloropyridazin-3-yl)azetidin-3-yl)methyl)-2-(4-cyclopropylphenyl)acetamide]
IC50 (human PANK3): 5.4 ± 0.42 nM

O=C(Cc1ccc(C2CC2)cc1)N1CCN(c2nc3ncc(Cl)cc3o2)CC1 [PZ-4359]
IC50 (human PANK3): 1.23 ± 0.17 nM

CN(c1ccc(CC(=O)N2CCN(c3ccc(Cl)nn3)CC2)cc1)S(C)(=O)=O [PZ-4200]
IC50 (human PANK3): 120 ± 11.2 nM

O=C(Cc1ccc(Cl)cc1)N1CCN(c2nc3ncc(F)cc3o2)CC1 [PZ-4363]
IC50 (human PANK3): 37.5 ± 2.4 nM

CC(C)c1ccc(CC(=O)NCC2(CCl)CN(c3ccc(Cl)nn3)C2)cc1 [PZ-4468]
IC50 (human PANK3): 1.2 ± 0.13 nM

CN(C)c1ccc(CC(=O)N2CCN(c3ccc(C#N)nn3)CC2)cc1 [PZ-4060, 6-(4-(2-(4-(dimethylamino)phenyl)acetyl)piperazin-1-yl)pyridazine-3-carbonitrile]
C3A CoA% elevation [1]: 230.5%

C[C@@H]1CN(c2nc3cc(F)cnc3o2)CCN1C(=O)Cc1ccc(C2CC2)cc1 [PZ-4470]
IC50 (human PANK3): 3.88 ± 0.24 nM

O=C(Cc1ccc(C2CC2)cc1)NCC1(CO)CN(c2ccc(Cl)nn2)C1 [PZ-4511, N-((1-(6-chloropyridazin-3-yl)-3-(hydroxymethyl)azetidin-3-yl)methyl)-2-(4-cyclopropylphenyl)acetamide]
IC50 (human PANK3): 606 ± 237 nM

CC(C)c1ccc(CC(=O)N2CCN(c3nc4cc(F)cnc4o3)CC2)cc1 [PZ-4462]
IC50 (human PANK3): 1.37 ± 0.16 nM

CS(=O)(=O)Nc1ccc(CC(=O)N2CCN(c3nc4cccnc4o3)CC2)cc1 [PZ-4323]
IC50 (human PANK3): 9.9 ± 1.6 nM

O=C(Nc1ccc(C2CC2)cc1F)N1CCN(c2nc3c(F)cc(F)cc3s2)CC1 [PZ-4433]
IC50 (human PANK3): 1.79 ± 0.09 nM

O=C(Cc1ccc(C2CC2)cc1F)N1CCN(c2nc3ncc(Cl)cc3o2)CC1 [PZ-4361]
IC50 (human PANK3): 0.81 ± 0.15 nM

CN(C)c1ccc(CC(=O)N2CCN(c3nc4ccccc4s3)CC2)cc1 [PZ-4290]
IC50 (human PANK3): 370 ± 47 nM

CC(C)c1ccc(CC(=O)N2CCN(c3nc4cccnc4s3)CC2)cc1 [PZ-4432]
IC50 (human PANK3): 3.95 ± 0.26 nM

O=C(Oc1ccc(C2CC2)cc1)N1CCN(c2nc3ncc(F)cc3o2)CC1 [PZ-4436]
IC50 (human PANK3): 2 ± 0.18 nM

O=C(Cc1ccc(C2CC2)cc1)N1CCN(c2nc3cc(F)ccc3o2)CC1 [PZ-4303]
IC50 (human PANK3): 54 ± 6.4 nM

O=C(Cc1ccc(C2CC2)c(F)c1)N1CCN(c2nc3cccnc3o2)CC1 [PZ-4343]
IC50 (human PANK3): 49 ± 3 nM

CS(=O)(=O)Nc1ccc(CC(=O)N2CCN(c3ccc(C#N)nn3)CC2)cc1 [PZ-4202]
C3A CoA% elevation [1]: 183.3%

O=C(Cc1ccc(C2CC2)cc1F)N1CCN(c2nc3ncccc3o2)CC1 [PZ-4349]
IC50 (human PANK3): 2.1 ± 0.26 nM

CC(C)c1ccc(CC(=O)N2CCN(c3nc4ncc(F)cc4o3)CC2)cc1 [PZ-4435]
IC50 (human PANK3): 0.33 ± 0.02 nM

CN(C)c1ccc(CC(=O)N2CCN(c3nc4cccnc4s3)CC2)cc1 [PZ-4317]
IC50 (human PANK3): 391 ± 129 nM

CC(C)c1ccc(NC(=O)N2CCN(c3nc4c(F)cc(F)cc4s3)CC2)cc1 [PZ-4434]
IC50 (human PANK3): 1.04 ± 0.06 nM

O=C(Cc1ccc(C2CC2)cc1)NCC1(CCl)CN(c2nc3cc(F)cnc3o2)C1 [PZ-4472]
IC50 (human PANK3): 21.8 ± 1.78 nM

CS(=O)(=O)Nc1ccc(CC(=O)N2CCN(c3nc4ncc(F)cc4o3)CC2)cc1 [PZ-4357]
IC50 (human PANK3): 1.95 ± 0.25 nM

C[C@@H]1CN(c2ccc(Cl)nn2)CCN1C(=O)Cc1ccc(N(C)C)cc1 [PZ-4112]
IC50 (human PANK3): 39.7 ± 4.7 nM

O=C(Cc1ccc(C2CC2)c(F)c1)N1CCN(c2nc3ncccc3o2)CC1 [PZ-4348]
IC50 (human PANK3): 5.7 ± 0.49 nM

O=C(Cc1ccc(C2CC2)cc1)N1CCN(c2nc3ccccc3[nH]2)CC1 [PZ-4312]
IC50 (human PANK3): 987 ± 476 nM

O=C(Cc1ccc(C2CC2)cc1)N1CCN(c2nc3ccccc3o2)CC1 [PZ-4305]
IC50 (human PANK3): 173 ± 48.5 nM

O=C(Cc1ccc(C2CC2)c(F)c1)N1CCN(c2nc3ncc(Cl)cc3o2)CC1 [PZ-4360]
IC50 (human PANK3): 5.6 ± 0.88 nM

CC(C)c1ccc(CC(=O)N2CCN(c3nc4cc(F)cnc4o3)C[C@H]2C)cc1 [PZ-4471]
IC50 (human PANK3): 0.88 ± 0.09 nM

CN(C)c1ccc(CC(=O)N2CCN(c3nc4cccnc4o3)CC2)cc1 [PZ-4319]
IC50 (human PANK3): 346 ± 100 nM

CC(C)c1ccc(CC(=O)N2CCN(c3nc4cc(F)cnc4o3)[C@@H](C)C2)cc1 [PZ-4475]
IC50 (human PANK3): 0.76 ± 0.05 nM

C[C@H]1CN(c2ccc(Cl)nn2)CCN1C(=O)Cc1ccc(N(C)C)cc1 [PZ-4111]
IC50 (human PANK3): 11.1 ± 0.7 nM

C[C@H]1CN(C(=O)Cc2ccc(C3CC3)cc2)CCN1c1nc2cc(F)cnc2o1 [PZ-4474]
IC50 (human PANK3): 1.37 ± 0.14 nM

O=C(Cc1ccc(C2CC2)cc1F)N1CCN(c2nc3ccc(F)cc3o2)CC1 [PZ-4383]
IC50 (human PANK3): 3.4 ± 0.33 nM

CS(=O)(=O)Nc1ccc(CC(=O)N2CCN(c3nc4cccnc4s3)CC2)cc1 [PZ-4321]
IC50 (human PANK3): 5.67 ± 0.39 nM

CN(C)c1ccc(CC(=O)N2CCN(c3ccc(Cl)nn3)CC2)cc1 [PZ-4061, 1-(4-(6-chloropyridazin-3-yl)piperazin-1-yl)-2-(4-(dimethylamino)phenyl)ethanone]
C3A CoA% elevation [1]: 418.7%

CC(=O)OCC1(CNC(=O)Cc2ccc(C3CC3)cc2)CN(c2ccc(Cl)nn2)C1 [PZ-4510]
IC50 (human PANK3): 1110 ± 852 nM

CC(=O)Nc1ccc(CC(=O)N2CCN(c3ccc(C#N)nn3)CC2)cc1 [PZ-4070, N-(4-(2-(4-(6-cyanopyridazin-3-yl)piperazin-1-yl)-2-oxoethyl)phenyl)acetamide]
IC50 (human PANK3): 65 ± 9.8 nM

O=C(Cc1ccc(C2CC2)cc1)N1CCN(c2nc3cc(F)cnc3o2)CC1 [PZ-4386]
IC50 (human PANK3): 2.1 ± 0.21 nM

CN(C)c1ccc(CC(=O)N2CCN(c3nc4c(F)cccc4s3)CC2)cc1 [PZ-4318]
IC50 (human PANK3): 183 ± 71 nM

O=C(Cc1ccc(C2CC2)cc1)N1CCN(c2ncc3ccsc3n2)CC1 [PZ-4479]
IC50 (human PANK3): 713 ± 294 nM

CN(C)c1ccc(CC(=O)N2CCN(c3nc4ncc(F)cc4o3)CC2)cc1 [PZ-4467]
IC50 (human PANK3): 2.62 ± 0.18 nM

CC(C)c1ccc(CC(=O)NCC2(CCl)CN(c3nc4cc(F)cnc4o3)C2)cc1 [PZ-4473]
IC50 (human PANK3): 7.51 ± 0.62 nM

CCS(=O)(=O)Nc1ccc(CC(=O)N2CCN(c3ccc(Cl)nn3)CC2)cc1 [PZ-4216]
C3A CoA% elevation [1]: 54.9%

O=C(Cc1ccc(C2CC2)cc1)N1CCN(c2nc3ncc(F)cc3o2)CC1 [PZ-4350, 2-(4-cyclopropylphenyl)-1-(4-(6-fluorooxazolo[4,5-b]pyridin-2-yl)piperazin-1-yl)ethenone]
IC50 (human PANK3): 1.1 ± 0.12 nM

O=C(Cc1ccc(C2CC2)cc1)N1CCN(c2nc3cc(F)cnc3o2)CC1 [PZ-4463]
IC50 (human PANK3): 10.3 ± 0.55 nM
